Reference: US7585893B2, “Anti-cancer composition comprising DMXAA or related compound” (Cancer Research Technology Limited, priority 2002, dated 2009)
Several values for one entry are separate records, joined by “and”; a condition that tells them apart may be missing. Equal values may be shown once. Read-outs that look alike come from different tables or passages of the source.

How the values were obtained:
[1] = tested on: HT29 human colon cancer cells; test: HT29 human colon carcinoma xenograft, oral dosing (Experiment 3); type: in vivo; settings: HT29 xenograft in nude mice; 28 mg/kg oral, or 28 + 15 + 15 mg/kg at 0, 4, 8 h
Description: Nude mice were implanted with 5×10^6 HT29 human colon cancer cells, subcutaneously. […] Tumours were then measured using callipers every 2-3 days and volumes calculated. Comparative tumour growth curves are plotted with respect to those at the onset of treatment (relative tumour volume).

Colon 38 tumour = Colon 38 tumour growth delay, oral DMXAA (Experiments I and II); type: in vivo, C57B1/6 mice; settings: for mice cured completely: 30+15+15 mg/kg orally at 0, 4, 8 h
Description: C57B1/6 mice from the Animal Resource Unit, University of Auckland, were bred and housed under conditions of constant temperature and humidity, with sterile bedding and food, according to institutional ethical guidelines. All mice were aged between 8 and 12 weeks.
DMXAA was synthesized as the sodium salt (Rewcastle et al (1990) Journal of National Cancer Institute 82:528-529). DMXAA sodium salt was dissolved in sterile water and was administered orally by gavage.
Colon 38 tumour fragments (˜1 mm^3) were implanted subcutaneously (s.c.) in the left flank of anaesthetized (sodium pentobarbital, 81 mg/kg) mice. The experiments were initiated when tumours were approximately 3-4 mm (approximately 20 mg mass) in diameter. Tumour-bearing mice were treated with drugs according to the administration schedule described before, and the tumours measured using calipers, three times weekly thereafter. Tumour volumes were calculated as O.52a^2b, where a and b are the minor and major axes of the tumour, respectively. For graphical representation the arithmetic means were calculated for each time point, counting cured tumours as zero volume.
Two groups of 5 mice were implanted with tumours. The treatment group received DMXAA according to the schedule shown, the control group received no DMXAA. The individual mice in each group were not marked, and so any one line of the spreadsheet data shown in Table 1 could be from any individual mouse of a particular group.
The data were normalised, to enable plotting of the average tumour growth beginning from a relative size of 1 (see FIG. 1).
This example was performed using four groups of mice. Group 1 (control, n=5) received no treatment. Group 2 (n=5) received two 15 mg/kg doses of DMXAA. Group 3 (n=5) received a single 30 mg/kg dose of DMXAA. Group 4 (n=6) received three doses of DMXAA in concentrations of 30+15+15 mg/kg. In this experiment tumours were all 14 mm^3 at the start of the experiment. Data were normalised by division by 14 to give size relative to initial size.
The tumour growth delay experiment was conducted using 2 drug regimes: untreated controls (n=5) and oral DMXAA (n=5) administered in 3 doses. The first dose (30 mg/kg), was administered at t=0 hours followed by two lower doses each of 15 mg/kg at t=4 hours and t=8 hours respectively. Tumour size was measured thrice weekly and the results normalised as described above. The results are shown in Table 1 (raw data), Table 2 (normalised data) and FIG. 1, Expt. I (plotted as a graph).
In this example, the tumour growth delay experiment was conducted using 4 drug regimes: untreated controls (Group 1, n=5); two 15 mg/kg doses of DMXAA separated by a 4 hour interval (Group 2, n=5); a single 30 mg/kg dose of DMXAA (Group 3, n=5); three doses of DMXAA in concentrations of 30+15+15 mg/kg administered at t=0, 4 and 8 hours respectively (Group 4, n=6). The 30 mg/kg dose is the maximum tolerated single dose Zhao et al (Cancer Chemother Pharmacol. 2002 January; 49(1):20-6). Tumour size was measured thrice weekly and the results normalised as described above. The results are shown in Table 3 (raw data), Table 4 (normalised data) and FIG. 1, Expt. II (plotted as a graph).

tumour = settings: Zhao et al, cited from earlier work
tumour blood flow = settings: Phase I clinical trials; well-tolerated doses; cited from earlier work
[2] = oral; Zhao et al; cited from earlier work

Cc1ccc2c(=O)c3cccc(CC(=O)O)c3oc2c1C [DMXAA, 5,6-dimethylxanthenone-4-acetic acid]
antitumour activity by the oral route [1]: induces antitumour activity
side effects of multiple dose strategy (Colon 38 tumour; 30+15+15 mg/kg orally): without the serious side effects
mice cured completely (Colon 38 tumour; Expt I, within 24 days): 4/5
Tumor volume (Colon 38 tumour; Expt I, 30+15+15 mg/kg orally at 4 h intervals, 0 day, individual mice, 15 mg/kg): 6.3 mm^3 and 18.8 mm^3 (2×) and 14.1 mm^3 (2×)
Tumor volume (Colon 38 tumour; Expt II, 30 mg/kg orally single dose, 0 day): 14.0 mm^3
tumour growth over time-course (Colon 38 tumour; Expt II, 2×15 mg/kg oral doses, 4 h interval): tumours continued to grow
Tumor volume (Colon 38 tumour; Expt II, 15 − 15 mg/kg orally, 4 h interval, 0 day): 14.0 mm^3
mice cured completely (Colon 38 tumour; Expt II, within 17 days): 6/6
Tumor volume (Colon 38 tumour; Expt II, 30 − 16 − 15 mg/kg orally, 0 day): 14.0 mm^3
Tumor volume (Colon 38 tumour; Expt II, 30 − 16 − 15 mg/kg orally, 17 day): 0.0 mm^3
Normalised tumour size (relative to initial size) (Colon 38 tumour; Expt II, oral 30 mg/kg single dose, day 0): 1
Normalised tumour size (relative to initial size) (Colon 38 tumour; Expt II, oral 15 − 15 mg/kg, day 0): 1
Normalised tumour size (relative to initial size) (Colon 38 tumour; Expt II, oral 30 − 15 − 15 mg/kg, day 0): 1
Normalised tumour size (relative to initial size) (Colon 38 tumour; Expt II, oral 30 − 15 − 15 mg/kg, day 17): 0
tumour growth over time-course (Colon 38 tumour; Expt II, single 30 mg/kg oral dose): tumours continued to grow
cures (tumour; intraperitoneal administration): 40%
cures (tumour; single dose orally administered): no cures
tumour blood flow (dynamic MRI) (tumour blood flow): significant reduction in tumour blood flow
maximum tolerated single dose [2]: 30 mg/kg
